Results published in patent US7432260B2, “Pyrimidine compounds” (Cyclacel Limted, priority 2002, dated 2008).
Where two headings read alike, the source gives them in different places.

Key:
[1] = Compound cytotoxicity in PBMCs (MTS); format: cell-based; details: human, concentration decreasing cell viability by 50%, read-out: PBMC TC50
Method: Representative compounds of the present invention were tested for antiviral activity against HIV-1 in human peripheral blood mononuclear cells (PBMCs) using the clinical paediatric HIV strain RoJo or WeJo. PBMCs were cultured under conditions which promote cell survival and HIV replication. Antiviral activity was tested for from 6-9 log10 serial dilutions of a 100 μM compound stock solution in DMSO.
Fresh PBMCs, seronegative for HIV and HBV, were isolated from screened donors (Interstate Blood Bank, Inc. Memphis, Term.). Cells were pelleted/washed 2-3 times by low speed centrifugation and re-suspension in PBS to remove contaminating platelets. […] Banded PBMCs were gently aspirated from the resulting interface and subsequently washed with PBS by low speed centrifugation. After the final wash, cells were enumerated by trypan blue exclusion and re-suspended in RPMI 1640 supplemented with fetal bovine serum (FBS), and L-glutamine, Phytohemagglutinin (PHA-P, Sigma). The cells were allowed to incubate at 37° C. After incubation, PBMCs were centrifuged and resuspended in RPMI 1640 with FBS, L-glutamine, penicillin, streptomycin, gentamycin, and recombinant human IL-2 (R&D Systems, Inc). IL-2 is included in the culture medium to maintain the cell division initiated by the PHA mitogenic stimulation. PBMCs were maintained in this with bi-weekly medium changes until used in the assay protocol. Cells were kept in culture for a maximum of two weeks before being deemed too old for use in assays and discarded. Monocytes were depleted from the culture as the result of adherence to the tissue culture flask.
For the standard PBMC assay, PHA-P stimulated cells from at least two normal donors were pooled, diluted and plated in the interior wells of a 96-well round bottom microplate. Pooling of mononuclear cells from more than one donor was used to minimise the variability observed between individual donors, which results from quantitative and qualitative differences in HIV infection and overall response to the PHA and IL-2 of primary lymphocyte populations. Each plate contained virus/cell control wells (cells plus virus), experimental wells (drug plus cells plus virus) and compound control wells (drug plus media […], necessary for MTS monitoring of cytotoxicity). Since HIV-1 is not cytopathic to PBMCs, this allows the use of the same assay plate for both antiviral activity and cytotoxicity measurements. Test drug dilutions were prepared in microtiter tubes and each concentration was placed in appropriate wells using the standard format. A predetermined dilution of virus stock was placed in each test well (final MOI≅0.1). The PBMC cultures were maintained for seven days following infection at 37° C., 5% CO2. After this period, cell-free supernatant samples were collected for analysis of reverse transcriptase activity and/or HIV p24 content. Following removal of supernatant samples, compound cytotoxicity was measured by addition of MTS to the plates for determination of cell viability. Wells were also examined microscopically and any abnormalities were noted.

CDK2/cyclin E = CDK2/cyclin E (Homo sapiens, UniProt P24941); assay: Kinase assay CDK2/cyclin E; format: biochemical
In short: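 Radiometric kinase assays with recombinant enzymes (2-4 μg) and polypeptide substrates in β-glycerophosphate/MOPS/EGTA buffer, pH 7.4. Started with 15 mM MgCl2 + 100 μM ATP containing [γ-32P]-ATP, incubated at 30° C; incorporated 32P captured on filterplates and counted. Compounds diluted in 10% DMSO assay buffer.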

[2] = molecular target: p70 ribosomal protein S6 kinase (Homo sapiens, UniProt P23443); assay: Kinase assay p70/S6; format: biochemical; details: Table 3 selectivity panel; read-out: Kinase specificity IC50 p70/S6
Sequence of p70 ribosomal protein S6 kinase (P23443 91-352 limits assumed): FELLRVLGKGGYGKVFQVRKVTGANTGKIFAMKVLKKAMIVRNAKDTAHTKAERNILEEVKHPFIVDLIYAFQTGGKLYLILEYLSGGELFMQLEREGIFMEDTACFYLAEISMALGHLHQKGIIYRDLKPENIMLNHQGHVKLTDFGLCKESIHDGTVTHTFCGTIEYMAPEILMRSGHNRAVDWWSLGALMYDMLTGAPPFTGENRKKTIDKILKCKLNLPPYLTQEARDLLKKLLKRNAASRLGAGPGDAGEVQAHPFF
Method: (§1) Kinase assays. […] This was achieved by measurement of incorporation of radioactive phosphate from ATP into appropriate polypeptide substrates. Recombinant protein kinases and kinase complexes were produced or obtained commercially. Assays were performed using 96-well plates and appropriate assay buffers (typically 25 mM β-glycerophosphate, 20 mM MOPS, 5 mM EGTA, 1 mM DTT, 1 mM […], pH 7.4), into which were added 2-4 μg of active enzyme with appropriate substrates. The reactions were initiated by addition of Mg/ATP mix (15 mM MgCl2+100 μM ATP with 30-50 kBq per well of [γ-^32P]-ATP) and mixtures incubated as required at 30° C. Reactions were stopped on ice, followed by filtration through p81 filterplates or GF/C filterplates (Whatman Polyfiltronics, Kent, UK). After washing 3 times with 75 mM aq orthophosphoric acid, plates were dried, scintillant added and incorporated radioactivity measured in a scintillation counter (TopCount, Packard Instruments, Pangbourne, Berks, UK). Compounds for kinase assay were made-up as 10 mM stocks in DMSO and diluted into 10% DMSO inrassay buffer.

[3] = molecular target: Akt/PKB (protein kinase B) (Homo sapiens, UniProt P31749); assay: Kinase assay Akt/PKB; format: biochemical; details: Table 3 selectivity panel; read-out: Kinase specificity IC50 Akt/PKB
Sequence of Akt/PKB (protein kinase B) (P31749 whole entry): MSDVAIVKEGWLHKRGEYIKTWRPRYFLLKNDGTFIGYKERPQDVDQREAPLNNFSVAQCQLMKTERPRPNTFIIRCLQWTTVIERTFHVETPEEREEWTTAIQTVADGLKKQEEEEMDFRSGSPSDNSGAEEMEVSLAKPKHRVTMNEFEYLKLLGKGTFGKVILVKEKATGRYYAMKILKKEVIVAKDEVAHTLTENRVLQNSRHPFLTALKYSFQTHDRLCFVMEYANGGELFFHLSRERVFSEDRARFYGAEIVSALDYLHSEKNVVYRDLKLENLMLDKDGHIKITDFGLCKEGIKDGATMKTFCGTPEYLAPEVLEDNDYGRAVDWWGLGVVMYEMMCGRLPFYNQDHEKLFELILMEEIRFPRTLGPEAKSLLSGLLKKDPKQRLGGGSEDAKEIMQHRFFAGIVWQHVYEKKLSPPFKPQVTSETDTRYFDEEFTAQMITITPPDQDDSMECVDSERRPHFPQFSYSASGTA
Method: as §1

[4] = molecular target: Abl (Ableson tyrosine kinase) (Homo sapiens, UniProt P00519); assay: Kinase assay Abl; format: biochemical; details: Table 3 selectivity panel; read-out: Kinase specificity IC50 Abl
Sequence of Abl (Ableson tyrosine kinase) (P00519 whole entry, species assumed): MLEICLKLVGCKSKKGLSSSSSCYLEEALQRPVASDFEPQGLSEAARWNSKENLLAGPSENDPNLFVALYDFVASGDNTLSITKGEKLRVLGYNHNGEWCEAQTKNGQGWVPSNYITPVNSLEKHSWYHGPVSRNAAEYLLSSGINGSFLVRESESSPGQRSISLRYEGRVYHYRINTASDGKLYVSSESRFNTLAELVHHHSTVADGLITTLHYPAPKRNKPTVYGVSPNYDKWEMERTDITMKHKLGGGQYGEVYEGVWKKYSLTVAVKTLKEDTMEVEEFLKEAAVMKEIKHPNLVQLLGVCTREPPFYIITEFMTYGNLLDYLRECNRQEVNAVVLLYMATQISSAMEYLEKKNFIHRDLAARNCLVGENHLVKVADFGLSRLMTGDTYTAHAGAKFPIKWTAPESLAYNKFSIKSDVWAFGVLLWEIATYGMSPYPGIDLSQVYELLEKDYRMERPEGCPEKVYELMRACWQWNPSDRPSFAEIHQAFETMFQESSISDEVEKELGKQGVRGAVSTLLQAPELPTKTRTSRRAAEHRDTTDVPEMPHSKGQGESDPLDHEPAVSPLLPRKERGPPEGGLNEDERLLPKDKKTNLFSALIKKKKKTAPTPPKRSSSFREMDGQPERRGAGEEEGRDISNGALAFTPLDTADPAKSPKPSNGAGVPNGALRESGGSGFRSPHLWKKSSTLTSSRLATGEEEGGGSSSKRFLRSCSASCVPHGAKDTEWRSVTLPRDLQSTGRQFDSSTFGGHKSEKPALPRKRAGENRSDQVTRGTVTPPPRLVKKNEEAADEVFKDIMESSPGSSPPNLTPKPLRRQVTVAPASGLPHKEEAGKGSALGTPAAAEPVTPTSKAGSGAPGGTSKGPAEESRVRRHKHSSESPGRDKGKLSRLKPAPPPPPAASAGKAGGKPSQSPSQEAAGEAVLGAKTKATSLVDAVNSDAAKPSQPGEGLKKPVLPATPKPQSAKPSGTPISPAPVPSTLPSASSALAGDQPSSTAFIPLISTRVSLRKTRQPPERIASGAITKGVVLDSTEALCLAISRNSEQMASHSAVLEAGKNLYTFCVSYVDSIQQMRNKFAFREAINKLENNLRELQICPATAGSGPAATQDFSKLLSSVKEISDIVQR
Method: as §1

H1299 = assay: 72-h MTT cytotoxicity assay H1299; format: cell-based; details: Homo sapiens, NCI-H1299, 72 h; Table 5; Lung
Method: (§2) MTT cytotoxicity assay. […] Standard 72-h MTT (thiazolyl blue; 3-[4,5-dimethylthiazol-2-yl]-2,5-diphenyltetrazolium bromide) assays were performed (Haselsberger, K.; Peterson, D. C.; Thomas, D. G.; Darling, J. L. Anti Cancer Drugs 1996, 7, 331-8; Loveland, B. E.; Johns, T. G.; Mackay, I. R.; Vaillant, F.; Wang, Z. X.; Hertzog, P. J. Biochemistry International 1992, 27, 501-10). In short: cells were seeded into 96-well plates according to doubling time and incubated overnight at 37° C. Test compounds were made up in DMSO and a 1/3 dilution series prepared in 100 μL cell media, added to cells (in triplicates) and incubated for 72 ho at 37° C. MTT was made up as a stock of 5 mg/mL in cell media and filter-sterilised. Media was removed from cells followed by a wash with 200 μL PBS.
(§3) MTT solution was then added at 20 μL per well and incubated in the dark at 37° C. for 4 h. MTT solution was removed and cells again washed with 200 μL PBS. MTT dye was solubilised with 200 μL per well of DMSO with agitation.

SKUT-1 = assay: 72-h MTT cytotoxicity assay SKUT-1; format: cell-based; details: Homo sapiens, SK-UT-1, 72 h; Table 5; Leiomyosarcoma
Method: as §2, §3

Messa = assay: 72-h MTT cytotoxicity assay Messa; format: cell-based; details: Homo sapiens, MES-SA, Table 5, Uterine
Method: as §2, §3

Hs27 = assay: 72-h MTT cytotoxicity assay Hs27; format: cell-based; details: Homo sapiens, HS27, 72 h; Table 5; Foreskin fibroblast (non-transformed)
Method: as §2, §3

[5] = Table 2, read-out: Kinase Inhibition IC50 CDK2 cyclin E
[6] = Table 3 selectivity panel, read-out: Kinase specificity IC50 CDK2/E

Structure (SMILES) | CC50 at 7 days [1] [µM] | IC50 (CDK2/cyclin E; [5]) [µM] | IC50 (CDK2/cyclin E; [6]) [µM] | IC50 [2] [µM] | IC50 [3] [µM] | IC50 [4] [µM] | IC50 (H1299) [µM] | IC50 (SKUT-1) [µM] | IC50 (Messa) [µM] | IC50 (Hs27) [µM]
CCNc1nc(C)c(-c2ccnc(Nc3ccc(N4CCOCC4)cc3)n2)s1 [Compound 4, [4-(2-Ethylamino-4-methyl-thiazol-5-yl)-pyrimidin-2-yl]-(4-morpholin-4-yl-phenyl)-amine] | 9.4 |  |  |  |  |  |  |  |  | 
Cc1nc(NC(=O)[C@H](N)[C@@H](C)O)sc1-c1ccnc(Nc2cccc([N+](=O)[O-])c2)n1 [Compound 15, (2R,3R)-2-Amino-3-hydroxy-N-{4-methyl-5-[2-(3-nitro-phenylamino)-pyrimidin-4-yl]-thiazol-2-yl}-butyramide] | 2.4 | 0.13 | 0.15 | > 100 | > 100 | 0.76 | 1.3 | 0.9 | 0.9 | 1.7
Cc1nc(C)c(-c2ccnc(Nc3ccc(NC(=O)CN4CCCC4)cc3)n2)s1 [Compound 53, N-{4-[4-(2,4-Dimethyl-thiazol-5-yl)-pyrimidin-2-ylamino]-phenyl}-2-pyrrolidin-1-yl-acetamide] | 1.6 | 0.52 |  |  |  |  |  |  |  | 
CNc1nc(C)c(-c2ccnc(Nc3ccc(N4CCN(Cc5ccccc5)CC4)cc3)n2)s1 [Compound 11, [4-(4-Benzyl-piperazin-1-yl)-phenyl]-[4-(4-methyl-2-methylamino-thiazol-5-yl)-pyrimidin-2-yl]-amine] |  | 0.26 | 0.26 | > 100 | > 100 | 72 | 1.1 | 0.8 | 0.1 | 19
CNc1nc(C)c(-c2ccnc(Nc3ccc(N4CCOCC4)cc3)n2)s1 [Compound 3, [4-(2-N-Methylamino-4-methyl-thiazol-5-yl)-pyrimidin-2-yl]-(4-morpholinophenyl)-amine] | > 100 |  |  | 2.6 | > 100 | 50 |  |  |  | 
Cc1nc(N)sc1-c1ccnc(Nc2ccc(N3CCOCC3)cc2)n1 [Compound 1, [4-(2-Amino-4-methyl-thiazol-5-yl)-pyrimidin-2-yl]-(4-morpholin-4-yl-phenyl)-amine] | 6.1 |  |  |  |  |  | 0.9 | 0.9 | 0.2 | > 5
CC[C@@H](N)C(=O)Nc1nc(C)c(-c2ccnc(Nc3cccc([N+](=O)[O-])c3)n2)s1 [Compound 16, (2R)-2-Amino-N-{4-methyl-5-[2-(3-nitro-phenylamino)-pyrimidin-4-yl]-thiazol-2-yl}-butyramide] |  | 0.32 | 0.35 | 8 | > 100 | 1.5 | 0.6 | 0.2 | 0.4 | > 5
